Data as given in patent US20090054403A1, “Treatment of Post-Traumatic Stress Disorder” (priority 2007, published 2009).

Legend:
plasma NE, DA and EPI = assay: Plasma catecholamines in beagle dogs, 2 mg/kg b.i.d. for 14.5 days; format: in vivo
Description: A separate study was conducted in dogs to determine the effects of chronic administration of 2a on the plasma DA/NE ratio. Animals were randomized to receive, orally, either placebo (empty capsule) or 2a (2 mg/kg, b.i.d) for 14.5 days. Daily blood samples were drawn, 6 h after the first dose, for the measurement of plasma concentrations of DA and NE. The samples were collected in tubes containing heparin and glutathione, centrifuged at […] and stored at −70° C. until analysis.
Male Beagle dogs (Marshall farms, North Rose, N.Y.) weighing between 9-16 kg were used in the study. The animals were allowed water ad libitum and given food once daily at ˜10.00 AM. Animals were randomly assigned to one of the following treatment groups (n=8/group): placebo (empty capsule), or nepicastat at 2 mg/kg b.i.d (4 mg/kg/day). Each animal received 2 doses daily, morning and afternoon (8-10 hours apart). Daily blood samples (10 ml) were drawn 6 h after the AM dose for measurement of plasma levels of nepicastat and catecholamines. The blood was collected in tubes containing heparin and glutathione and centrifuged at −4° C. within 1 h of collection. The plasma was separated and divided into two samples, one for the measurement of plasma catecholamines and the other for analysis of nepicastat.
Plasma NE, DA and EPI were anaylysed by HPLC using electrochemical detection. Plasma concentration of nepicastat was determined by HPLC using electrochemical detection.
The BQL (below quantitation limit) in the DA concentration of dog 1 at day 10 was set to 0; ln (0) was set to missing. The analysis was performed using a mixed model (using PROC MIXED) with the day and treatment categorical variables being fixed and the dog within treatment being a random factor. For the fixed effects, the interaction between the day and the treatment was included, since the difference between the drug and placebo groups varies from day to day. Contrasts were calculated using the CONTRAST statement, which correctly takes into account the error terms for each particular contrast. In particular, the contrasts comparing the […] uses the dog mean square for its error term, while the comparisons used to establish steady state are all within dog comparisons, and require the error mean square.
The time period of steady state was calculated using the Helmert transformation (cf. SAS PROC GLM manual). These transformations compare each treatment mean with the average of the treatment means of the time points following. The steady state period is defined to start at the first time point following the maximum time at which the Helmert contrast is statistically significant. However, since this method can fail to detect a smoothly changing process, as appears might be the case here, the slope of the analyte concentration during the steady state period also was calculated. The slope during the steady state period was calculated for each dog individually, yielding one slope per animal. Univariate statistics on the slopes were then calculated, with Normal theory confidence intervals built on the mean slope, and the hypothesis of slope equalling zero was tested, and its Normal theory p-value was calculated. This slope analysis was used as the basis for determining whether the steady state period was a period of changing concentration.

[1] = tested on: dopamine/norepinephrine ratio; assay: Dose response of tissue dopamine/norepinephrine ratio 6 hours after a single oral dose; format: in vivo, SHR
[2] = tested on: tissue noradrenaline and dopamine content; assay: Tissue catecholamines in beagle dogs dosed b.i.d. for 4.5 days (0.05-5 mg/kg); format: in vivo
Description: Male beagle dogs (10-16 kg, Marshall Farms USA Inc, North Rose, N.Y., USA) were used in the study. On the day of the study, dogs were weighed and randomly assigned to be orally dosed with either empty capsules (control) or the appropriate dose of nepicastat (0.05, 0.5, 1.5 or 5 mg.kg^−1; po, b.i.d.) […]. At six hours following the first dose on day-5, the dogs were euthanized with pentobarbital and the tissues (cerebral cortex, renal artery, left ventricle) were rapidly harvested. The tissues were subsequently processed and analysed for noradrenaline and dopamine as described above.
Male beagle dogs (10-16 kg, Marshall Farms USA Inc, North Rose, N.Y.) were used in the study. On the day of the study, dogs were randomly assigned to receive either placebo (empty capsule) or the appropriate dose of 2a. Each dog was dosed twice a day for 4.5 days. 6 h after the first dose on day 5, the dogs were euthanized with pentobarbital and the tissues (cerebral cortex. renal artery, left ventricle) harvested, weighed, placed in iced 0.4 M perchloric acid, frozen in liquid nitrogen and stored at −70° C. until analysis. Tissue NE and DA concentrations were assayed by HPLC using electrochemical detection.

Cl.NCc1c[nH]c(=S)n1[C@H]1CCc2c(F)cc(F)cc2C1 [nepicastat, (S)-5-Aminomethyl-1-(5,7-difluoro-1,2,3,4-tetrahydronaphth-2-yl)-2,3-dihydro-2-thioxo-1H-imidazole hydrochloride]
day of peak decrease in plasma EPI (plasma NE, DA and EPI; 2 mg/kg b.i.d.): 8 days | day of peak decrease in plasma NE (plasma NE, DA and EPI; 2 mg/kg b.i.d.): 6 days | day of peak increase in plasma DA (plasma NE, DA and EPI; 2 mg/kg b.i.d.): 7 days | day of peak increase in plasma DA/NE ratio (plasma NE, DA and EPI; 2 mg/kg b.i.d.): 6 days | decrease in plasma EPI vs placebo (plasma NE, DA and EPI; 2 mg/kg b.i.d.): 1.91 fold | decrease in plasma NE vs placebo (plasma NE, DA and EPI; 2 mg/kg b.i.d.): 2.1 fold | increase in plasma DA vs placebo (plasma NE, DA and EPI; 2 mg/kg b.i.d.): 7.5 fold | increase in plasma DA/NE ratio vs placebo (plasma NE, DA and EPI; 2 mg/kg b.i.d.): 13.6 fold | time to steady-state of effect on plasma DA (plasma NE, DA and EPI; 2 mg/kg b.i.d.): ~8 days post-dose | time to steady-state of effect on plasma EPI (plasma NE, DA and EPI; 2 mg/kg b.i.d.): ~6 days post-dose | time to steady-state of effect on plasma NE (plasma NE, DA and EPI; 2 mg/kg b.i.d.): approximately 4 days post-dose | peak reduction in plasma concentration of noradrenaline (plasma NE, DA and EPI; 2 mg/kg b.i.d. po, day-6 of dosing): 52% | peak increase in plasma concentration of dopamine (plasma NE, DA and EPI; 2 mg/kg b.i.d. po, day-7 of dosing): 646% | time to peak effect on plasma DA/NE ratio (plasma NE, DA and EPI; 2 mg/kg b.i.d., 14.5 day treatment): 6 to 7 days | dose with significant change in dopamine/norepinephrine ratio, cerebral cortex [1]: 10 mg/kg | dose with significant change in dopamine/norepinephrine ratio, left ventricle [1]: 3.0 mg/kg | dose with significant change in dopamine/norepinephrine ratio, mesenteric artery [1]: 0.3 mg/kg | maximal increase in DA/NE ratio, artery (renal) ([2]; 5 mg/kg): 95 fold | maximal increase in DA/NE ratio, cerebral cortex ([2]; 5 mg/kg): 80 fold | maximal increase in DA/NE ratio, left ventricle ([2]; 5 mg/kg): 151 fold | decrease in noradrenaline, cerebral cortex ([2]; 5 mg/kg b.i.d. po): 96% | decrease in noradrenaline, left ventricle ([2]; 5 mg/kg b.i.d. po): 91% | decrease in noradrenaline, renal artery ([2]; 5 mg/kg b.i.d. po): 88% | increase in dopamine, cerebral cortex ([2]; 5 mg/kg b.i.d. po): 166% | increase in dopamine, left ventricle ([2]; 5 mg/kg b.i.d. po): 700% | increase in dopamine, renal artery ([2]; 5 mg/kg b.i.d. po): 627% | doses at which catecholamine changes attained statistical significance (p<0.05) ([2]; renal artery, left ventricle, cerebral cortex): > 0.1 mg/kg/day
